Data as given in US7479478B2, “Human parathyroid hormone modifications, preparation and use” (The General Hospital Corporation, priority 1998, dated 2009).
No end group written: not given here.

Columns and labels:
human PTH-1 receptors [1] = target: T1, human PTH-1 receptors (Homo sapiens, UniProt Q03431); experiment: Radioligand competition binding with 125I-[Nle8,21,Tyr34]rat PTH-(1-34) in HKRK B7 cells; conditions: read-out: apparent IC50 for binding
T1 construct: expressed in transfected cells
T1 sequence (Q03431 27-593): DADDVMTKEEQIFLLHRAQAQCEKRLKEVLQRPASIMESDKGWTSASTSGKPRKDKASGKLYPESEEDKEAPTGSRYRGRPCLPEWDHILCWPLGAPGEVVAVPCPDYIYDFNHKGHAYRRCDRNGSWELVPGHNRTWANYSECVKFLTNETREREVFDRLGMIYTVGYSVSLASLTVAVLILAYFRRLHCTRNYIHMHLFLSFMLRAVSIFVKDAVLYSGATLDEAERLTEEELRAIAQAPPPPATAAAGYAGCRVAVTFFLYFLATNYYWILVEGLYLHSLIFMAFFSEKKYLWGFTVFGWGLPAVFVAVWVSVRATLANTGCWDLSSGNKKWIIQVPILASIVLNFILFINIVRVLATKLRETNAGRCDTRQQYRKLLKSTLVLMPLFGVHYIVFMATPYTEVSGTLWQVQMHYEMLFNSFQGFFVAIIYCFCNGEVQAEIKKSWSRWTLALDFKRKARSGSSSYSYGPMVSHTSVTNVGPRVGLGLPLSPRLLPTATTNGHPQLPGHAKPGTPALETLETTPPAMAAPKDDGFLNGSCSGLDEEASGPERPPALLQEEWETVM
Experimental: HKRK B7 or EW5 cells (32), subclones of LLC-PKI renal epithelial cells that stably express human or rat PTH-1 receptors (950,000 and 320,000 receptors/cell, respectively), were maintained under 5% CO2 in air in Dulbecco's modified essential medium containing 7% fetal bovine serum (FBS) and 1% penicillin/streptomycin (GIBCO-BRL, Grand Island, N.Y.). HEK-293 and COS-7 cells were cultured similarly, except that 10% FBS was used in the medium. Cells were seeded into 24-well plates two days before assay at a density of 2-2.5×10^5 cells/well (HKRK B7 or EW 5 cells) or 6×10^5 cells/well (in 6-well plates) (HEK-293 cells). In experiments involving HEK-293 cells, DNA transfections were performed 24 hr after plating and inositol radiolabel was added 24 hr thereafter (see below). COS-7 cell transfections were performed as previously described (Gardella, T. J., et al., Endocrinology 132(5):2024-2030 (1993)) Radioligand competition binding assays were performed at 2-8° C. for 6 hr using ^125I-[Nle^8,21,[…]]rat PTH-(1-34) (100,000 cpm/well) in the presence or absence of non-radioactive hPTH-(1-34) analogs. Cell layers were washed three times before solubilization for determination of cell-associated radioactivity.

human PTH-1 receptors [2] = target: T1, human PTH-1 receptors; experiment: PLC activation (total inositol polyphosphates) in transiently transfected HEK-293 cells; assay type: cell-based; conditions: 1000 nM peptide, mean ± SEM
Experimental: (§1) HKRK B7 or EW5 cells (32), subclones of LLC-PKI renal epithelial cells that stably express human or rat PTH-1 receptors (950,000 and 320,000 receptors/cell, respectively), were maintained under 5% CO2 in air in Dulbecco's modified essential medium containing 7% fetal bovine serum (FBS) and 1% penicillin/streptomycin (GIBCO-BRL, Grand Island, N.Y.). HEK-293 and COS-7 cells were cultured similarly, except that 10% FBS was used in the medium. Cells were seeded into 24-well plates two days before assay at a density of 2-2.5×10^5 cells/well (HKRK B7 or EW 5 cells) or 6×10^5 cells/well (in 6-well plates) (HEK-293 cells). In experiments involving HEK-293 cells, DNA transfections were performed 24 hr after plating and inositol radiolabel was added 24 hr thereafter (see below). COS-7 cell transfections were performed as previously described (Gardella, T. J., et al., Endocrinology 132(5):2024-2030 (1993))
PLC was activated by PTH agonists in the presence of 30 mM LiCl at 37° C. for 30 min after 16 hr of labeling with [^3H]myo-inositol (3 uCi/ml) in serum-free medium containing 0.1% bovine serum albumin. […]
Total inositol polyphosphate produced in response to 1000 nM of the peptides shown were measured in HEK-293 cells that transiently expressed human PTH-1 receptors. Results are expressed as means±SEMs of the % of basal activity for triplicate determinations.

rat PTH-1 receptors [3] = target: T2, rat PTH-1 receptors (Rattus norvegicus, UniProt P25961); experiment: PLC activation in EW5 cells; assay type: cell-based; conditions: compared with human PTH-1 receptor
T2 construct: expressed in transfected cells
T2 sequence (P25961 27-591): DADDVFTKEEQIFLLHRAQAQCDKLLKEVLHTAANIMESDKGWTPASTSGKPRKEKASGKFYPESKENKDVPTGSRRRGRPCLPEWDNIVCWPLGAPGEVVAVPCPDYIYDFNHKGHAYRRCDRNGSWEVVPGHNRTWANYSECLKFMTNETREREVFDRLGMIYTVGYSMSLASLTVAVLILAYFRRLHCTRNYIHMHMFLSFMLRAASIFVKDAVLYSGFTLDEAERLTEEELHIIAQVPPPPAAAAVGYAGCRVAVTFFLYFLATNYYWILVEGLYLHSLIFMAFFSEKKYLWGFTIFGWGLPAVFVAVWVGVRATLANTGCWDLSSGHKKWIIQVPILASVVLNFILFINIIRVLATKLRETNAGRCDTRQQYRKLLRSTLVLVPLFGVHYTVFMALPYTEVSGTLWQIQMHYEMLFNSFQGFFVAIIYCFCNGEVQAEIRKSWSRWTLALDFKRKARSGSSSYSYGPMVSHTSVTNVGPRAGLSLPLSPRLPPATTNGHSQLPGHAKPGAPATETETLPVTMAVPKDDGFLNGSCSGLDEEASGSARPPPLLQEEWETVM
Experimental: as §1
PLC was activated by PTH agonists in the presence of 30 mM LiCl at 37° C. for 30 min after 16 hr of labeling with [^3H]myo-inositol (3 uCi/ml) in serum-free medium containing 0.1% bovine serum albumin. The reactions were stopped by rapid aspiration and addition of cold 5% TCA. Water-soluble radiolabeled inositol trisphosphate (IP3) was isolated after ether extraction by ion-exchange chromatography (Guo, J., et al., Endocrinology 136(9):3884-3891 (1995)). […]

rat PTH-1 receptors [4] = target: T2, rat PTH-1 receptors; experiment: Radioligand binding in EW5 cells; conditions: compared with human PTH-1 receptor
Experimental: as §1
Radioligand competition binding assays were performed at 2-8° C. for 6 hr using ^125I-[Nle^8,21, Tyr^34]rat PTH-(1-34) (100,000 cpm/well) in the presence or absence of non-radioactive hPTH-(1-34) analogs. Cell layers were washed three times before solubilization for determination of cell-associated radioactivity. […]

## SVSEIQLMHNLGKHLNSMERVEWLRKKL-NH2 [hPTH-(1-28)]
Human PTH-1 receptors [1]
  IC50: 1000 nM
Human PTH-1 receptors [2]
  PLC Activity (% Basal): 305 ± 20 % Basal
Rat PTH-1 receptors [3]
  signaling (PLC) via rat PTH-1 receptors, result in words: more severely impaired
Rat PTH-1 receptors [4]
  binding affinity for rat PTH-1 receptor, result in words: comparable
